Target: T1, human FFAR1 (GPR40) (Homo sapiens, UniProt O14842)
T1 construct: Flag; expressed in transfected cells; host or cells: HEK293T
Experiment: NFAT-RE-based reporter gene activity assay (Dual-Glo luciferase) for GPR40 agonistic activity in co-transfected HEK293T cells
Format: cell-based
Conditions: 4-hour treatment
Description: The pcDNA3.0-flag-FFAR1 (GPR40) plasmid was constructed using conventional molecular cloning methods. The main steps were as follows: The full-length cDNA sequence of human FFAR1 (GPR40) (NM_005303.3) was inserted into the HindIII and XbaI restriction sites of the pcDNA3.0 vector via PCR technology, resulting in the pcDNA3.0-flag-FFAR1 (GPR40) plasmid; pGL4.30 [luc2P NFAT-RE] (# E8481) and pRL-TK (#E2241) plasmids were both purchased from Promega; the plasmids were transformed into DH5α E. coli using the CaCl2 method, further cultured and amplified, and then purified using a plasmid extraction kit (TIANGEN, # DP117) to obtain the corresponding plasmid DNA.
HEK293T cells were seeded in a 96-well plate at a density of 1 × 10^4/well one day prior to plasmid transfection. Cell transfection was performed according to the instructions of the transfection reagent FuGENE® HD (Promega, # E2311). The main steps were as follows: Taking one well as an example, plasmids pcDNA3.0-flag-FFAR1 (GPR40), pGL4.30 [luc2P NFAT-RE], and pRL-TK were added at ratios of 50 ng, 50 ng, and 5 ng, respectively, into 10 µL of Opti-MEM™ I medium (Gibco, #11058021) and mixed thoroughly; then, 0.2 µL of FuGENE® HD was added, mixed thoroughly, and allowed to stand at room temperature for 5 minutes; finally, this 10 µL mixture was added to the cell well containing 100 µL of culture medium. 24 hours after co-transfection, the compounds were serially diluted at half-logarithmic intervals with 1 µM as the highest concentration, resulting in 10 concentration gradients, which were added to the cell culture medium for a 4-hour treatment.
After 4 hours of compound treatment, the cells were assayed according to the instructions of the Dual-Glo® Luciferase Assay System (Promega, # E2940). The main steps were as follows: 50 µL of culture medium was aspirated from each well and discarded, followed by the addition of 50 µL of Dual-Glo® Luciferase Reagent, and the mixture was shaken at room temperature for 10 minutes. Then, 80 µL of the lysate reaction solution was transferred to a white opaque optiPlate-96 well plate, and the luminescence signal of Firefly luciferase (Firefly-Luc) was measured using an MD i3x multifunctional microplate reader. Subsequently, 40 µL of Dual-Glo® Stop & Glo® Reagent was added, and the mixture was shaken at room temperature for 10 minutes. Finally, the luminescence signal of Renilla luciferase (Renilla-Luc) was measured using the MD i3x multifunctional microplate reader. The ratio of Firefly-Luc/Renilla-Luc was used as the compound's agonistic activity toward GPR40, and normalization was performed using the ratio of the solvent DMSO group. A dose-response curve was fitted using a four-parameter model with GraphPad Prism 8.0 software to calculate the EC50 value.

T1 sequence (O14842 whole entry): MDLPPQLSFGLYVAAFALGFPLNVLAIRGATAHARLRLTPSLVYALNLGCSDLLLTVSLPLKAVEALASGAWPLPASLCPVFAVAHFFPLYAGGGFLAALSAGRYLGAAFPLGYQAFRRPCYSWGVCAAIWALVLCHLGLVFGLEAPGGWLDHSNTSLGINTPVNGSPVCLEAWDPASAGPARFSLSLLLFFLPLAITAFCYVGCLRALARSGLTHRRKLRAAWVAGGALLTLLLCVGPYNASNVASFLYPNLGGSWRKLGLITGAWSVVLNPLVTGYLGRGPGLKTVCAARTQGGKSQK

Compound | EC50 [µM] | Efficacy (%) (class symbols) | Efficacy (%) (numeric values of positive controls)
COc1ccc(F)c(N2CCC(c3oc4cc(C(CC(=O)O)C5CC5)ccc4c3C(=O)NCCC(C)(C)C)CC2)c1 (stereo not drawn) [Compound 307] | 0.1 to 0.5 | †† (150 ≥ Efficacy (%) > 100) | –
COc1ccc(-c2c(C3CCN(c4cc(OC)ccc4F)CC3)oc3cc([C@@H](CC(=O)O)C4CC4)ccc23)cc1 [Compound 179] | 0.1 to 0.5 | ††† (Efficacy (%) > 150) | –
COc1cccc(N2CCC(c3oc4cc([C@@H](CC(=O)O)C5CC5)ccc4c3C(C)N(C)CC(C)(C)C)CC2)c1 (stereo partly drawn) [Compound 439] | 0.1 to 0.5 | †† (150 ≥ Efficacy (%) > 100) | –
CSc1cccc(N2CCC(c3oc4cc(C(CC(=O)O)C5CC5)ccc4c3-c3cccc(C(C)(C)C)c3)CC2)c1 (stereo not drawn) [Compound 31] | 0.1 to 0.5 | †† (150 ≥ Efficacy (%) > 100) | –
COc1ccnc(N2CCC(c3oc4cc(C(CC(=O)O)C5CC5)ccc4c3-c3ccc(C(C)(C)C)cc3)CC2)c1 (stereo not drawn) [Compound 32] | 0.1 to 0.5 | †† (150 ≥ Efficacy (%) > 100) | –
COc1cccc(N2CCC(c3oc4cc(C(CC(=O)O)C5CC5)ccc4c3C(=O)N3CCCC3C)CC2)c1 (stereo not drawn) [Compound 359] | 0.1 to 0.5 | † (100 ≥ Efficacy (%) > 50) | –
COc1ccc(F)c(N2CCC(c3oc4cc(C(CC(=O)O)C5CC5)ccc4c3-c3ccc(C(=O)N(C)CC(C)(C)C)cc3)CC2)c1 (stereo not drawn) [Compound 202] | 0.1 to 0.5 | †† (150 ≥ Efficacy (%) > 100) | –
COc1cccc(N2CCC(c3oc4cc([C@@H](CC(=O)O)C5CC5)ccc4c3-c3csc(C(C)(C)C)n3)CC2)c1 [Compound 108] | 0.01 to 0.1 | ††† (Efficacy (%) > 150) | –
COc1cccc(N2CCC(c3oc4cc(C(CC(=O)O)C5CC5)ccc4c3C(=O)Nc3c(F)cccc3F)CC2)c1 (stereo not drawn) [Compound 256] | 0.1 to 0.5 | ††† (Efficacy (%) > 150) | –
CCC(CC(=O)O)c1ccc2c(-c3cnn(C(C)(C)C)c3)c(C3CCN(c4cccc(OC)c4)CC3)oc2c1 (stereo not drawn) [Compound 66] | 0.1 to 0.5 | †† (150 ≥ Efficacy (%) > 100) | –
COc1ccc(F)c(N2CCC(c3oc4cc(C(CC(=O)O)C5CC5)ccc4c3CCOC(C)C)CC2)c1 (stereo not drawn) [Compound 393] | 0.1 to 0.5 | †† (150 ≥ Efficacy (%) > 100) | –
COc1cccc(N2CCC(c3oc4cc([C@@H](CC(=O)O)C5CC5)ccc4c3C(=O)Nc3ccccc3F)CC2)c1F [Compound 323] | ≤ 0.01 | †† (150 ≥ Efficacy (%) > 100) | –
COc1ccc(F)c(N2CCC(c3oc4cc([C@@H](CC(=O)O)C5CC5)ccc4c3-c3cccc(OC(F)(F)F)c3)CC2)c1 [Compound 173] | 0.1 to 0.5 | ††† (Efficacy (%) > 150) | –
CNC(=O)c1cc(-c2c(C3CCN(c4cccc(OC)c4)CC3)oc3cc(C(CC(=O)O)C4CC4)ccc23)cn1C (stereo not drawn) [Compound 82] | 0.1 to 0.5 | † (100 ≥ Efficacy (%) > 50) | –
COc1ccc(C(=O)N(CC(C)(C)C)c2cccc(C)n2)c(N2CCC(COc3cc([C@@H](CC(=O)O)C4CC4)ccn3)CC2)c1 [SCO-267, SCO267, reference compound] | 0.01 to 0.1 | – | 100
COc1cccc(N2CCC(c3oc4cc([C@@H](CC(=O)O)C5CC5)ccc4c3C(C)OCC(C)(C)C)CC2)c1 (stereo partly drawn) [Compound 411] | 0.01 to 0.1 | †† (150 ≥ Efficacy (%) > 100) | –
COc1cccc(N2CCC(c3oc4cc([C@@H](CC(=O)O)C5CC5)ccc4c3C(=O)Nc3ccccc3C)CC2)c1 [Compound 239] | 0.01 to 0.1 | ††† (Efficacy (%) > 150) | –
O=C(O)C[C@H](c1ccc2c(C(=O)Nc3cc(F)ccc3Cl)c(C3CCN(c4ccc5c(c4)OCO5)CC3)oc2c1)C1CC1 [Compound 333] | ≤ 0.01 | †† (150 ≥ Efficacy (%) > 100) | –
COc1cccc(N2CCC(c3oc4cc([C@@H](CC(=O)O)C5CC5)ccc4c3COc3ccccc3)CC2)c1 [Compound 404] | 0.1 to 0.5 | †† (150 ≥ Efficacy (%) > 100) | –
COc1cccc(N2CCC(c3oc4cc(C(CC(=O)O)C5CC5)ccc4c3C(=O)NC3CCC(C)(C)CC3)CC2)c1 (stereo not drawn) [Compound 348] | 0.1 to 0.5 | †† (150 ≥ Efficacy (%) > 100) | –

Compound | EC50 [µM] | Efficacy (%) (class symbols) | Efficacy (%) (numeric values of positive controls)
COc1cccc(N2CCC(c3oc4cc([C@@H](CC(=O)O)C5CC5)ccc4c3C(=O)Nc3cc(OC(F)(F)F)ccc3Cl)CC2)c1 [Compound 277] | > 0.5 | †††† | –
C=C(C)c1ccc(-c2c(C3CCN(c4cccc(OC)c4)CC3)oc3cc(C(CC(=O)O)C4CC4)ccc23)cc1 (stereo not drawn) [Compound 30] | 0.1 to 0.5 | †† (150 ≥ Efficacy (%) > 100) | –
COc1cccc(N2CCC(c3oc4cc([C@@H](CC(=O)O)C5CC5)ccc4c3CN(CC(C)(C)C)c3cccc(Cl)c3)CC2)c1 [Compound 447] | 0.1 to 0.5 | †† (150 ≥ Efficacy (%) > 100) | –
CCc1cccc(NC(=O)c2c(C3CCN(c4cccc(OC)c4)CC3)oc3cc(C(CC(=O)O)C4CC4)ccc23)c1 (stereo not drawn) [Compound 243] | > 0.5 | †† (150 ≥ Efficacy (%) > 100) | –
COc1cccc(N2CCC(c3oc4cc(C(CC(=O)O)C5CC5)ccc4c3C(=O)Nc3noc4ccccc34)CC2)c1 (stereo not drawn) [Compound 296] | 0.1 to 0.5 | ††† (Efficacy (%) > 150) | –
COc1ccc(F)c(N2CCC(c3oc4cc(C(CC(=O)O)C5CC5)ccc4c3C/C=C/C(C)C)CC2)c1 (stereo not drawn) [Compound 371] | 0.1 to 0.5 | †† (150 ≥ Efficacy (%) > 100) | –
CCCCCC(C)(C)c1nnc(-c2c(C3CCN(c4cccc(OC)c4)CC3)oc3cc(C(CC(=O)O)C4CC4)ccc23)o1 (stereo not drawn) [Compound 131] | 0.01 to 0.1 | †† (150 ≥ Efficacy (%) > 100) | –
COc1cccc(N2CCC(c3oc4cc([C@@H](CC(=O)O)C5CC5)ccc4c3C(C)OCC[C@@H](C)CCCC(C)C)CC2)c1 (stereo partly drawn) [Compound 414] | > 0.5 | ††† (Efficacy (%) > 150) | –
CC(C)(C)c1cccc(-c2c(C3CCN(c4cccc(F)c4)CC3)oc3cc(C(CC(=O)O)C4CC4)ccc23)c1 (stereo not drawn) [Compound 8] | > 0.5 | †† (150 ≥ Efficacy (%) > 100) | –
CNC(=O)C(C)(C)n1cc(-c2c(C3CCN(c4cccc(OC)c4)CC3)oc3cc(C(CC(=O)O)C4CC4)ccc23)cn1 (stereo not drawn) [Compound 52] | 0.1 to 0.5 | † (100 ≥ Efficacy (%) > 50) | –
COc1cccc(N2CCC(c3oc4cc(C(CC(=O)O)C5CC5)ccc4c3-c3csc(C(C)C)n3)CC2)c1 (stereo not drawn) [Compound 106] | 0.01 to 0.1 | †† (150 ≥ Efficacy (%) > 100) | –
COc1cccc(N2CCC(c3oc4cc(C(CC(=O)O)C5CC5)ccc4c3C(=O)Nc3ccccc3C#N)CC2)c1 (stereo not drawn) [Compound 236] | 0.01 to 0.1 | ††† (Efficacy (%) > 150) | –
COc1cccc(N2CCC(c3oc4cc(C(CC(=O)O)C5CC5)ccc4c3-c3ncn(C)n3)CC2)c1 (stereo not drawn) [Compound 121] | > 0.5 | †† (150 ≥ Efficacy (%) > 100) | –
COc1ccccc1C(C)N1CCC(c2oc3cc(C(CC(=O)O)C4CC4)ccc3c2C(=O)Nc2ccccc2F)CC1 (stereo not drawn) [Compound 328] | > 0.5 | †† (150 ≥ Efficacy (%) > 100) | –
COc1cccc(N2CCC(c3oc4cc(C(CC(=O)O)C5CC5)ccc4c3-c3nnc(C(C)(C)C)s3)CC2)c1 (stereo not drawn) [Compound 118] | 0.01 to 0.1 | †† (150 ≥ Efficacy (%) > 100) | –
COc1ccc(F)c(N2CCC(c3oc4cc(C(CC(=O)O)C5CC5)ccc4c3C(=O)Nc3ccc(C(C)(C)C)cc3)CC2)c1 (stereo not drawn) [Compound 315] | 0.1 to 0.5 | †† (150 ≥ Efficacy (%) > 100) | –
COc1ccc(F)c(N2CCC(c3oc4cc([C@@H](CC(=O)O)C5CC5)ccc4c3C(=O)Nc3cc(F)ccc3Cl)CC2)c1 [Compound 341] | ≤ 0.01 | †† (150 ≥ Efficacy (%) > 100) | –
COc1cccc(N2CCC(c3oc4cc(C(CC(=O)O)C5CC5)ccc4c3-c3cnc(C)s3)CC2)c1 (stereo not drawn) [Compound 101] | 0.1 to 0.5 | †† (150 ≥ Efficacy (%) > 100) | –
CCC(c1ccccc1OC)N1CCC(c2oc3cc(C(CC(=O)O)C4CC4)ccc3c2C(=O)Nc2ccccc2F)CC1 (stereo not drawn) [Compound 326] | 0.1 to 0.5 | †† (150 ≥ Efficacy (%) > 100) | –
